In publication PMC10143822, “Structural Adaptation of the Single-Stranded DNA-Binding Protein C-Terminal to DNA Metabolizing Partners Guides Inhibitor Design” (Pharmaceutics, 2023):
Where a SMILES comes first, the peptide text is derived from it. [ ]: non-standard residue; d: D form. Phe(4-CF3) = N[C@@H](Cc1ccc(C(F)(F)F)cc1)C(=O)O; Phe(3-Cl) = N[C@@H](Cc1cccc(Cl)c1)C(=O)O; Phe(4-Cl) = N[C@@H](Cc1ccc(Cl)cc1)C(=O)O; Pip = O=C(O)[C@@H]1CCCCN1; β3hD = NC(CC(=O)O)CC(=O)O

Key:
[1] = system: ExoI; details: 1 µM biotin-tagged peptide on streptavidin beads, lysate with 1 µM recombinant ExoI, 30 min; on-bead tryptic digestion, nanoLC-MS/MS intensities
Protocol: ExoI and RecO expressing cells were grown and lysed, as mentioned above. A fraction of cell lysate was used to quantify the recombinant protein content. BL21 (DE)3 pLysS cells were grown on LB media until OD600 = 2.0 and lysed using sonication. Recombinant protein containing lysates were diluted with BL21 (DE)3 pLysS lysate, setting the final concentration of the recombinant protein to 1 µM. SSB peptides (wtSSB, E1-sSSB, R2-sSSB) were immobilized onto Streptavidin DynaBeads using an N-terminal biotin tag. Then, 1 µM immobilized peptides were incubated with cell lysate for 30 min. Beads were washed with trypsin digestion buffer (20 mM TRIS pH = 8.0, 100 mM NaCl, 2 mM CaCl2). Beads were processed with an on-pellet digestion protocol. NanoLC-MS/MS analysis was carried out on a Waters ACQUITY UPLC M-Class LC system (Waters, Milford, MA, USA) coupled with a Q Exactive^TM Plus Hybrid Quadrupole-Orbitrap^TM mass spectrometer (Thermo Fisher Scientific, Waltham, MA, USA). The instrument was operated in the data-dependent mode. […]
To test the affinity improvement for E1-sSSB-Ct and R2-sSSB-Ct relative to wtSSB-Ct in a complex environment, we carried out a pull-down assay using bacterial cell lysates. […] The washed bead was digested, and tryptic peptides were detected using HPLC-MS.

[2] = target: T1, ExoI (Escherichia coli, UniProt P04995); assay: Isothermal titration calorimetry with ExoI; type: binding, E. coli; details: 20 mM Tris–HCl pH 8.0, 100 mM NaCl
T1 construct: His-tag (cleaved yes); host or cells: E. coli BL21 (DE3) pLysS
Protocol: (§1) Isothermal titration calorimetry (ITC) experiments were performed using a MicroCal VP-ITC titration microcalorimeter. ExoI was dialyzed extensively against the indicated buffer and cleared through centrifugation at 14,000 rpm for 15 min at 4 °C. RecO was subjected to a quick buffer exchange using an Amicon Ultra ultrafiltration device (Sigma). Protein concentrations were determined after the buffer exchange procedure.
(§2) The raw data were integrated using NITPIC [39]. The binding parameters, association equilibrium constant (KA), binding enthalpy (ΔH), and binding entropy (ΔS) were obtained by fitting the titration curves to a model of A + B = C in SEDPHAT [40]. Stoichiometry was fixed to 1:1 and the incompetent fraction was fitted for the protein concentration.

[3] = target: T2, RecO (Escherichia coli, UniProt P0A7H3); assay: Isothermal titration calorimetry with RecO; type: binding; details: 50 mM HEPES pH 7.5, 50 mM NaCl, 25% glycerol; read-out: KD, ITC, RecO
T2 construct: His-tag (TEV site) (N, cleaved yes); made in house; host or cells: E. coli Rosetta cells
Protocol: as §1, §2

T1 sequence (P04995 whole entry): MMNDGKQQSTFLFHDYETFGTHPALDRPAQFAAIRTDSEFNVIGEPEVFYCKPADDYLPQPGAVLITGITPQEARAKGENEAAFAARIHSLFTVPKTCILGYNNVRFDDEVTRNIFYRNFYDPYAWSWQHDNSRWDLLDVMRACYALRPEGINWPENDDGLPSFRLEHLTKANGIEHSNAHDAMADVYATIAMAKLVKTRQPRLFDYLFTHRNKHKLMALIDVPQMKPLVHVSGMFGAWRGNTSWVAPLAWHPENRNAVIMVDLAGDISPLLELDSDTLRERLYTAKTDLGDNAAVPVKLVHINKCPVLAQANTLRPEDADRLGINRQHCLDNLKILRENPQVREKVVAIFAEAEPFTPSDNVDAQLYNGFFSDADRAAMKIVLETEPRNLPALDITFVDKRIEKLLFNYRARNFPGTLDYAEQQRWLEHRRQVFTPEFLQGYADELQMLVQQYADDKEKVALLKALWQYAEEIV
T2 sequence (P0A7H3 whole entry): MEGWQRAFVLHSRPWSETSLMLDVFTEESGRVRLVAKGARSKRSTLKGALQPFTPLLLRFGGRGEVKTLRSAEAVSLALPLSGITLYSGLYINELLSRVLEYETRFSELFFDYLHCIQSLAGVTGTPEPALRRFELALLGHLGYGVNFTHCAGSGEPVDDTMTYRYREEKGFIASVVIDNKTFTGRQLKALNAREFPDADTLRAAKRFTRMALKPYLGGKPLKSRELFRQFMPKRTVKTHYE

SMILES | enrichment of ExoI on immobilized peptide compared to wtSSB-Ct [1] | ΔG, ITC, ExoI [2] | −TΔS, ITC, ExoI [2] | N (stoichiometry), ITC, ExoI ([2]; 1 mM MgCl2, 4% glycerol, model A + B = C, stoichiometry fixed 1:1, incompetent fraction fitted) | ΔH, ITC, ExoI ([2]; confidence interval in brackets) | Kd ([2]; read-out: KD, ITC, ExoI (in nM), 1:1 stoichiometry) | Kd [3]
CC(=O)N[C@@H](CCC(=O)O)C(=O)N[C@@H](Cc1ccc(C(F)(F)F)cc1)C(=O)N[C@@H](CC(=O)O)C(=O)N[C@@H](CC(=O)O)CC(=O)N[C@@H](CCC(=O)O)C(=O)N[C@@H](CC(C)C)C(=O)N1CCCC[C@H]1C(=O)N[C@@H](Cc1ccc(C(F)(F)F)cc1)C(=O)O [E1-sSSB-Ct] (Ac-E[Phe(4-CF3)]D[β3hD]EL[Pip][Phe(4-CF3)]-OH) | two-fold | -10.89 kcal/mol | 6.46 kcal/mol | 1.0000 | −17.35 (−18.34–−16.43) kcal/mol | 19 nM | 
CC[C@H](C)[C@H](NC(=O)[C@H](CC(=O)O)NC(=O)[C@H](CC(=O)O)NC(=O)[C@H](CC(=O)O)NC(=O)[C@H](Cc1ccc(Cl)cc1)NC(=O)[C@H](CC(=O)O)NC(C)=O)C(=O)N1CCC[C@H]1C(=O)N[C@@H](Cc1cccc(Cl)c1)C(=O)O [R2-sSSB-Ct] (Ac-D[Phe(4-Cl)]DDDIP[Phe(3-Cl)]-OH) |  |  |  |  |  |  | 35 nM
